# Laboratory results taken from patent US11642332B2, “(2R,4R)-5-(5′-chloro-2′-fluorobiphenyl-4-yl)-2-hydroxy-4-[(5-methyloxazole-2-carbonyl)amino]pentanoic acid” (THERAVANCE BIOPHARMA R&D IP, LLC, priority 2015, dated 2023).
# Assays:
# NEP = molecular target: T1, NEP (Rattus norvegicus, UniProt P07861); test: PK-PD assay for NEP activity in conscious normotensive Sprague-Dawley rats (plasma cGMP after ANP bolus); assay type: in vivo, male Sprague-Dawley rats; details: rat plasma, 3 mg/kg oral, 15 min after IV ANP bolus (30 μg/kg); average of three determinations
# T1 construct: Pre-cannulated male Sprague-Dawley rats (3 per compound evaluated) between 8 and 10 weeks of age were obtained from Harlan Laboratories; from tissue; host or cells: whole animal: conscious male Sprague-Dawley rats (Harlan Laboratories)
# T1 sequence (P07861 1-750): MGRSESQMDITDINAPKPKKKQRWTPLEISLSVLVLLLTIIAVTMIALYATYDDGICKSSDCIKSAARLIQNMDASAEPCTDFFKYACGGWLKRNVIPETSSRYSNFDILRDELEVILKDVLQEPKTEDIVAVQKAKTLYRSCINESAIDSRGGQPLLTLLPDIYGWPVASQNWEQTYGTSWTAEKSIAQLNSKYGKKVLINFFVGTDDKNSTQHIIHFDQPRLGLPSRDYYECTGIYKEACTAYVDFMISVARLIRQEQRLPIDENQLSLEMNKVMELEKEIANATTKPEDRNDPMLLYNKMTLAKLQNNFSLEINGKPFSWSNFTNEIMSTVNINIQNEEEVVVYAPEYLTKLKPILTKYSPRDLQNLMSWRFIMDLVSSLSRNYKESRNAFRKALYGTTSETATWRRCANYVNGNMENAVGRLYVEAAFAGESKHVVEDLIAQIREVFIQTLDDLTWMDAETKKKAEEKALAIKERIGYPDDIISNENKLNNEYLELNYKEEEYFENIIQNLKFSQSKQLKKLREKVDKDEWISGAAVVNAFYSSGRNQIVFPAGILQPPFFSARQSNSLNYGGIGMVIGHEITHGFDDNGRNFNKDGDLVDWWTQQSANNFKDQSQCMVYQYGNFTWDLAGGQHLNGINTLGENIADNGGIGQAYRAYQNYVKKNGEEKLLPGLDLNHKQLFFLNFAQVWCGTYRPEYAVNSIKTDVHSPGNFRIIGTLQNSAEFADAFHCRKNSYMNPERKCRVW
# Method: Appropriate masses of each test compound were added into a volume of vehicle (e.g. 5% sodium bicarbonate, 5% dextrose in H2O) such that the final concentration of each compound was appropriate to be dosed at 2 mL/kg. Note that a homogenous suspension was deemed to be acceptable for oral dosing.
# Pre-cannulated male Sprague-Dawley rats (3 per compound evaluated) between 8 and 10 weeks of age were obtained from Harlan Laboratories (Indianapolis, Ind.). Rats received a single oral gavage of the dosing solution. The final dose was typically in the range of 3-30 mg/kg. Serial blood samples were harvested via the cannula implanted in the jugular vein at 3 minutes, 15 minutes, 35 minutes, 45 minutes, 1 hour, 2 hours, 4 hours, 6 hours, and 24 hours post-dose. Samples were collected into microtainer tubes containing EDTA as the anticoagulant and were processed to plasma by refrigerated centrifugation. Fifteen minutes prior to the 45 minute, 2 hour, 4 hour, 6 hour, and 24 hour samples, an IV bolus (30 μg/kg) of Atrial Natriuretic Peptide (ANP) was administered. […] Since binding of ANP to its receptor leads to activation of guanylyl cyclase and subsequent production of cyclic guanosine monophosphate (cGMP), the observation of elevated levels of cGMP (>20 nM) in plasma 15 minutes after the IV administration of the ANP bolus was interpreted as evidence of ongoing neprilysin inhibition. Elevated levels plasma cGMP levels 24 hours after dosing is an indicator of the duration pharmacologic effect, analogous to plasma clearance values as indicators of pharmacokinetic persistence.
# Plasma samples were extracted with 3 volumes of MeCN containing a suitable internal standard. Extracts were reconstituted into 3 volumes of water containing 1% formic acid. Plasma cGMP and test compound concentrations were quantified in plasma samples by HPLC-coupled mass spectrometric detection.
# [1] = IV/PO pharmacokinetic study in dogs; assay type: in vivo, male beagle dogs; set-up: AUC(0-t): concentration or dose not given beside the values; details: dog; for AUC(0-t) / bioavailability: male, beagle, plasma; for AUC(0-t): read-out: AUClast Mean; for bioavailability: PO vs IV AUClast
# Method: (§1) Each rat or dog PK study began with formulation of the test compound. Appropriate masses of each test compound were added into a volume of vehicle (e.g. 5% sodium bicarbonate, 5% dextrose in H2O) such that the final concentration of each compound was appropriate to be dosed at 2 mL/kg. Although a homogenous suspension were acceptable for oral dosing, intravenous dosing solutions were sterile-filtered (0.2 μm) prior to dosing to ensure no particulates were administered.
# In the dog study, male beagle dogs (3 per route) housed at Agilux Laboratories (Worcester, Mass.) and weighing between 7-12 kg received either a single oral gavage or a single intravenous (via indwelling catheter) dose of the dosing solution. The final dose was typically 0.1-2 mg/kg. Serial blood samples were harvested via direct venipuncture at 3 minutes, 15 minutes, 30 minutes, 1 hour, 2 hours, 4 hours, 6 hours, 8 hours, 12 hours, and 24 hours post-dose. All samples were collected manually into microtainer tubes containing EDTA as the anticoagulant and were processed to plasma by refrigerated centrifugation.
# (§2) Plasma samples were extracted with 3 volumes of MeCN containing a suitable internal standard. Extracts were reconstituted into 3 volumes of water containing 1% formic acid, and analyzed via HPLC-coupled MS/MS. Plasma concentration-time data were analyzed using the Phoenix software (Pharsight Corp., St. Louis, Mo.) to calculate pharmacokinetic parameters.
# (§3) Plasma clearance was determined from the intravenous arm of the study, and represents the rate at which plasma is cleared of drug. It is equal to the dose divided by the area under the plasma concentration-time curve. In addition to plasma clearance, it is also essential for an orally administered drug to reach efficacious systemic levels following oral delivery. Oral bioavailability is a measurement of plasma exposures following oral administration relative to exposures following intravenous administration.
# [2] = molecular target: T2, human neprilysin (EC 3.4.24.11; NEP) (Homo sapiens, UniProt P08473); test: In vitro assay for the quantitation of inhibitor potency at human NEP; assay type: biochemical; details: recombinant human NEP, fluorogenic peptide substrate 10 μM, 37° C.; read-out: pKi at human NEP (converted)
# T2 construct: purchased R&D Systems 1182-ZN
# T2 sequence (P08473 52-750 limits assumed): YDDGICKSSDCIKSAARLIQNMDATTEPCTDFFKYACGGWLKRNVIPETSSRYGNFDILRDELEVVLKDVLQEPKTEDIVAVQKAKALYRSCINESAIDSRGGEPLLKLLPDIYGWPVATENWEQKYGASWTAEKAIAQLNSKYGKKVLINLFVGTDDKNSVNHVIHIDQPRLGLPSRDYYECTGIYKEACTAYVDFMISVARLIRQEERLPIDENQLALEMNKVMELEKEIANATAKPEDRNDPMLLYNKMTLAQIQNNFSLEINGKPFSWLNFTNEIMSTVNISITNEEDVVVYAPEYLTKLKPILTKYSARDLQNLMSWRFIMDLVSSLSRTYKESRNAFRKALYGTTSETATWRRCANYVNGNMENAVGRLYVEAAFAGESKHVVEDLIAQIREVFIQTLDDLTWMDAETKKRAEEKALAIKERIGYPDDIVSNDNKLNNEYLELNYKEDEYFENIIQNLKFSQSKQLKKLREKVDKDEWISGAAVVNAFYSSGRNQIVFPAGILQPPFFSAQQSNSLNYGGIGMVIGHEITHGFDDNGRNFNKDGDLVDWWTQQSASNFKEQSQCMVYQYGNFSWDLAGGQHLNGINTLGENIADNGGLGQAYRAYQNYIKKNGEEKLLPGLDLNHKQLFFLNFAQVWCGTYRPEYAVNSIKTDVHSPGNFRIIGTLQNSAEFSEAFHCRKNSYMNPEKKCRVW
# Method: The inhibitory activity at human neprilysin (EC 3.4.24.11; NEP) was determined as follows.
# Recombinant human NEP was obtained commercially (R&D Systems, Minneapolis, Minn., catalog number 1182-ZN). The fluorogenic peptide substrate Mca-D-Arg-Arg-Leu-Dap-(Dnp)-OH (Medeiros et al. (1997) Braz. J. Med. Biol. Res. 30:1157-62; Anaspec, San Jose, Calif.) was used.
# The assay was performed in 384-well white opaque plates at 37° C. using the fluorogenic peptide substrate at a concentration of 10 μM in Assay Buffer (50 mM HEPES, pH 7.5, 100 mM NaCl, 0.01% polyethylene glycol sorbitan monolaurate (Tween-20), 10 μM ZnSO4).
# Test compounds were assayed over the range of concentrations from 10 μM to 20 pM. Test compounds were added to the enzyme and incubated for 30 minute at 37° C. prior to initiating the reaction by the addition of substrate. Reactions were terminated after 20 minutes of incubation at 37° C. by the addition of glacial acetic acid to a final concentration of 3.6% (v/v).
# Plates were read on a fluorometer with excitation and emission wavelengths set to […]. Inhibition constants were obtained by nonlinear regression of the data using the equation (GraphPad Software, Inc., San Diego, Calif.): v=v0/[1+(I/K′)] where v is the reaction rate, v0 is the uninhibited reaction rate, I is the inhibitor concentration and K′ is the apparent inhibition constant.
# The compounds were tested in this assay and found to have pKi values at human NEP as follows.
# [3] = IV/PO pharmacokinetic study in rats; assay type: in vivo, male Sprague-Dawley rats; set-up: AUC(0-t): concentration or dose not given beside the values; details: rat; for AUC(0-t) / bioavailability: male, Sprague-Dawley, plasma; for AUC(0-t): read-out: AUClast Mean; for bioavailability: PO vs IV AUClast; for CLlast Mean: dose divided by AUClast
# Method: as §1
# In the rat study, pre-cannulated male Sprague-Dawley rats (3 per route) between 8 and 10 weeks of age were obtained from Harlan Laboratories (Indianapolis, Ind.). Rats received either a single oral gavage or a single intravenous (via lateral tail vein) dose of the dosing solution. The final dose was typically 0.5-3 mg/kg. Serial blood samples were harvested via the cannula implanted in the jugular vein at 3 minutes, 15 minutes, 30 minutes, 1 hour, 2 hours, 4 hours, 6 hours, and 24 hours post-dose. Sampling was performed either manually or using automated blood samplers. Samples were collected into microtainer tubes containing EDTA as the anticoagulant and were processed to plasma by refrigerated centrifugation.
# as §2, §3
# [4] = Dynamic moisture sorption (DMS) assessment; assay type: physicochemical
# Method: DMS measurements were performed using a VTI atmospheric microbalance, SGA-100 system (VTI Corp., Hialeah, Fla. 33016). A weighed sample was used and the humidity was lowest possible value (close to 0% relative humidity) at the start of the analysis. The DMS analysis consisted of a scan rate of 5% relative humidity/step over the full humidity range of 5-90%. The DMS run was performed isothermally at 25° C.
cGMP Concentration 24 hours After Dosing Mean (NEP) [nM],CLlast Mean ([1]; IV) [mL/min/kg],AUC(0-t) ([1]; IV) [ng·h/mL],bioavailability [1] [%],AUC(0-t) ([1]; PO) [ng·h/mL],Ki [2] [pM],AUC(0-t) ([3]; IV) [ng·h/mL],bioavailability [3] [%],AUC(0-t) ([3]; PO) [ng·h/mL],CLlast Mean ([3]; IV) [mL/min/kg],"total moisture gain ([4]; 5-70% relative humidity, 25° C.)","total moisture gain ([4]; 5-90% relative humidity, 25° C.)",hygroscopicity (DMS isotherm) ([4]; 25° C.),solid form (PXRD) after sorption-desorption cycles ([4]; after two sorption-desorption cycles),Structure (SMILES)
45,10.8,160,99,160,126,480,20,110,28.3,,,,,"COc1cc(C(=O)N[C@H](Cc2ccc(-c3cc(Cl)ccc3F)cc2)C[C@@H](O)C(=O)O)on1 [Comparison Compound C2, (2R,4R)-5-(5′-Chloro-2′-fluorobiphenyl-4-yl)-2-hydroxy-4-[(3-methoxyisoxazole-5-carbonyl)amino]pentanoic Acid]"
47,9.83,170,64,130,794,1500,60,880,10,,,,,"CCc1ncc(C(=O)N[C@H](Cc2ccc(-c3cc(Cl)ccc3F)cc2)C[C@@H](C)C(=O)O)o1 [Comparison Compound C3, (2R,4S)-5-(5′-Chloro-2′-fluorobiphenyl-4-yl)-4-[(2-ethyloxazole-5-carbonyl)amino]-2-methylpentanoic Acid]"
53,25.7,70,42,30,501,830,60,500,11.2,,,,,"C[C@H](C[C@@H](Cc1ccc(-c2cc(Cl)ccc2F)cc1)NC(=O)c1cnco1)C(=O)O [Comparison Compound C4, (2R,4S)-5-(5′-Chloro-2′-fluorobiphenyl-4-yl)-2-methyl-4-[(oxazole-5-carbonyl)amino]pentanoic Acid]"
,,,,,,,,,,less than 0.025 % by weight,less than 0.235 % by weight,non-hygroscopic solid,no change in form,"Cc1cnc(C(=O)N[C@H](Cc2ccc(-c3cc(Cl)ccc3F)cc2)C[C@@H](O)C(=O)O)o1 [Compound 1′, (2R,4R)-5-(5′-Chloro-2′-fluorobiphenyl-4-yl)-2-hydroxy-4-[(5-methyloxazole-2-carbonyl)amino]pentanoic Acid]"
